Experimental data from patent publication US20160168126A1, “CHEMICAL COMPOUNDS” (SYNGENTA LIMITED, priority 2013, published 2016).

Tested on: a variety of test species
Experiment: Post-emergence herbicidal activity (glasshouse, sprayed 8 days after sowing, evaluated after 13 days)
Assay type: in vivo
Settings: scale 0-5
Experimental: Seeds of a variety of test species were sown in standard soil in pots. After 8 days cultivation (post-emergence) under controlled conditions in a glasshouse (at 24/16° C., day/night; 14 hours light; 65% humidity), the plants were sprayed with an aqueous spray solution derived from the formulation of the technical active ingredient in acetone/water (50:50) solution containing 0.5% Tween 20 (polyoxyethelyene sorbitan monolaurate, CAS RN 9005-64-5). The test plants were then grown in a glasshouse under controlled conditions (at 24/16° C., day/night; 14 hours light; 65% humidity) and watered twice daily. After 13 days, the test was evaluated (5=total damage to plant; 0=no damage to plant).

## CCC(C)(OC)c1cc(N2C(=O)C(C)=C(Cl)C2O)nn1C (mixture of isomers) [Compound B13]
1000 g/ha
  Post-emergence herbicidal damage score, ABUTH (Abutilon theophrasti): 5
  Post-emergence herbicidal damage score, ALOMY (Alopecurus myosuroides): 3
  Post-emergence herbicidal damage score, AMARE (Amaranthus retroflexus): 3
  Post-emergence herbicidal damage score, ECHCG (Echinochloa crus-galli): 2
  Post-emergence herbicidal damage score, SETFA (Setaria faberi): 4
  Post-emergence herbicidal damage score, ZEAMX (Zea mays): 0

## CCOC(C)(CC)c1cc(N2C(=O)C(C)=C(Cl)C2O)nn1C (mixture of isomers) [Compound B14]
1000 g/ha
  Post-emergence herbicidal damage score, ABUTH (Abutilon theophrasti): 5
  Post-emergence herbicidal damage score, ALOMY (Alopecurus myosuroides): 3
  Post-emergence herbicidal damage score, AMARE (Amaranthus retroflexus): 4
  Post-emergence herbicidal damage score, ECHCG (Echinochloa crus-galli): 4
  Post-emergence herbicidal damage score, SETFA (Setaria faberi): 4
  Post-emergence herbicidal damage score, ZEAMX (Zea mays): 1

## CCC(C)c1cc(N2C(=O)C(C)=C(Cl)C2O)nn1C (mixture of isomers) [Compound B15]
1000 g/ha
  Post-emergence herbicidal damage score, ABUTH (Abutilon theophrasti): 5
  Post-emergence herbicidal damage score, ALOMY (Alopecurus myosuroides): 4
  Post-emergence herbicidal damage score, AMARE (Amaranthus retroflexus): 5
  Post-emergence herbicidal damage score, ECHCG (Echinochloa crus-galli): 5
  Post-emergence herbicidal damage score, SETFA (Setaria faberi): 5
  Post-emergence herbicidal damage score, ZEAMX (Zea mays): 2

## CCOC(c1cc(N2C(=O)C(C)=C(Cl)C2O)nn1C)C(C)(C)C (mixture of isomers) [Compound B16]
1000 g/ha
  Post-emergence herbicidal damage score, ABUTH (Abutilon theophrasti): 0
  Post-emergence herbicidal damage score, ALOMY (Alopecurus myosuroides): 0
  Post-emergence herbicidal damage score, AMARE (Amaranthus retroflexus): 0
  Post-emergence herbicidal damage score, ECHCG (Echinochloa crus-galli): 0
  Post-emergence herbicidal damage score, SETFA (Setaria faberi): 0
  Post-emergence herbicidal damage score, ZEAMX (Zea mays): 0

## CC1=C(Cl)C(O)N(c2cc(C(F)C(C)(C)C)n(C)n2)C1=O (mixture of isomers) [Compound B19]
1000 g/ha
  Post-emergence herbicidal damage score, ABUTH (Abutilon theophrasti): 4
  Post-emergence herbicidal damage score, ALOMY (Alopecurus myosuroides): 2
  Post-emergence herbicidal damage score, AMARE (Amaranthus retroflexus): 4
  Post-emergence herbicidal damage score, ECHCG (Echinochloa crus-galli): 3
  Post-emergence herbicidal damage score, SETFA (Setaria faberi): 4
  Post-emergence herbicidal damage score, ZEAMX (Zea mays): 0

## CC1=C(Cl)C(O)N(c2cc(C(C)C(F)(F)F)n(C)n2)C1=O (mixture of isomers) [Compound B21]
1000 g/ha
  Post-emergence herbicidal damage score, ABUTH (Abutilon theophrasti): 4
  Post-emergence herbicidal damage score, ALOMY (Alopecurus myosuroides): 5
  Post-emergence herbicidal damage score, AMARE (Amaranthus retroflexus): 5
  Post-emergence herbicidal damage score, ECHCG (Echinochloa crus-galli): 5
  Post-emergence herbicidal damage score, SETFA (Setaria faberi): 5
  Post-emergence herbicidal damage score, ZEAMX (Zea mays): 1

## CC1=C(Cl)C(O)N(c2cc(C(C)(F)C(C)(C)C)n(C)n2)C1=O (mixture of isomers) [Compound B22]
1000 g/ha
  Post-emergence herbicidal damage score, ABUTH (Abutilon theophrasti): 1
  Post-emergence herbicidal damage score, ALOMY (Alopecurus myosuroides): 1
  Post-emergence herbicidal damage score, AMARE (Amaranthus retroflexus): 0
  Post-emergence herbicidal damage score, ECHCG (Echinochloa crus-galli): 2
  Post-emergence herbicidal damage score, SETFA (Setaria faberi): 3
  Post-emergence herbicidal damage score, ZEAMX (Zea mays): 1

## CC1=C(Cl)C(O)N(c2cc3n(n2)CCC3C)C1=O (mixture of isomers) [Compound G1]
1000 g/ha
  Post-emergence herbicidal damage score, ABUTH (Abutilon theophrasti): 5
  Post-emergence herbicidal damage score, ALOMY (Alopecurus myosuroides): 4
  Post-emergence herbicidal damage score, AMARE (Amaranthus retroflexus): 5
  Post-emergence herbicidal damage score, ECHCG (Echinochloa crus-galli): 5
  Post-emergence herbicidal damage score, SETFA (Setaria faberi): 4
  Post-emergence herbicidal damage score, ZEAMX (Zea mays): 2

## CCC1CCn2nc(N3C(=O)C(C)=C(Cl)C3O)cc21 (mixture of isomers) [Compound G3]
1000 g/ha
  Post-emergence herbicidal damage score, ABUTH (Abutilon theophrasti): 5
  Post-emergence herbicidal damage score, ALOMY (Alopecurus myosuroides): 4
  Post-emergence herbicidal damage score, AMARE (Amaranthus retroflexus): 5
  Post-emergence herbicidal damage score, ECHCG (Echinochloa crus-galli): 4
  Post-emergence herbicidal damage score, SETFA (Setaria faberi): 5
  Post-emergence herbicidal damage score, ZEAMX (Zea mays): 2

## CCC1CCCn2nc(N3C(=O)C(C)=C(Cl)C3O)cc21 (mixture of isomers) [Compound G5]
1000 g/ha
  Post-emergence herbicidal damage score, ABUTH (Abutilon theophrasti): 5
  Post-emergence herbicidal damage score, ALOMY (Alopecurus myosuroides): 4
  Post-emergence herbicidal damage score, AMARE (Amaranthus retroflexus): 5
  Post-emergence herbicidal damage score, ECHCG (Echinochloa crus-galli): 4
  Post-emergence herbicidal damage score, SETFA (Setaria faberi): 4
  Post-emergence herbicidal damage score, ZEAMX (Zea mays): 0

## CC1=C(Cl)C(O)N(c2cc(C(C)(C)C)[nH]n2)C1=O (stereo not drawn) [Compound A1]
250 g/ha
  Post-emergence herbicidal damage score, ABUTH (Abutilon theophrasti): 5
  Post-emergence herbicidal damage score, ALOMY (Alopecurus myosuroides): 4
  Post-emergence herbicidal damage score, AMARE (Amaranthus retroflexus): 2
  Post-emergence herbicidal damage score, ECHCG (Echinochloa crus-galli): 5
  Post-emergence herbicidal damage score, SETFA (Setaria faberi): 4
  Post-emergence herbicidal damage score, ZEAMX (Zea mays): 0

## CC1=C(Cl)C(O)N(c2cc(C(F)(F)F)[nH]n2)C1=O (stereo not drawn) [Compound A2]
1000 g/ha
  Post-emergence herbicidal damage score, ABUTH (Abutilon theophrasti): 4
  Post-emergence herbicidal damage score, ALOMY (Alopecurus myosuroides): 1
  Post-emergence herbicidal damage score, AMARE (Amaranthus retroflexus): 1
  Post-emergence herbicidal damage score, ECHCG (Echinochloa crus-galli): 2
  Post-emergence herbicidal damage score, SETFA (Setaria faberi): 2
  Post-emergence herbicidal damage score, ZEAMX (Zea mays): 0

## CC1=C(Cl)C(O)N(c2cc(C(C)C)[nH]n2)C1=O (stereo not drawn) [Compound A3]
250 g/ha
  Post-emergence herbicidal damage score, ABUTH (Abutilon theophrasti): 5
  Post-emergence herbicidal damage score, ALOMY (Alopecurus myosuroides): 5
  Post-emergence herbicidal damage score, AMARE (Amaranthus retroflexus): 5
  Post-emergence herbicidal damage score, ECHCG (Echinochloa crus-galli): 5
  Post-emergence herbicidal damage score, SETFA (Setaria faberi): 4
  Post-emergence herbicidal damage score, ZEAMX (Zea mays): 1

## CC1=C(Cl)C(O)N(c2cc(C3CC3)[nH]n2)C1=O (stereo not drawn) [Compound A4]
1000 g/ha
  Post-emergence herbicidal damage score, ABUTH (Abutilon theophrasti): 5
  Post-emergence herbicidal damage score, ALOMY (Alopecurus myosuroides): 4
  Post-emergence herbicidal damage score, AMARE (Amaranthus retroflexus): 4
  Post-emergence herbicidal damage score, ECHCG (Echinochloa crus-galli): 5
  Post-emergence herbicidal damage score, SETFA (Setaria faberi): 4
  Post-emergence herbicidal damage score, ZEAMX (Zea mays): 1

## CC1=C(Cl)C(O)N(c2cc(C)[nH]n2)C1=O (stereo not drawn) [Compound A5]
1000 g/ha
  Post-emergence herbicidal damage score, ABUTH (Abutilon theophrasti): 5
  Post-emergence herbicidal damage score, ALOMY (Alopecurus myosuroides): 4
  Post-emergence herbicidal damage score, AMARE (Amaranthus retroflexus): 3
  Post-emergence herbicidal damage score, ECHCG (Echinochloa crus-galli): 2
  Post-emergence herbicidal damage score, SETFA (Setaria faberi): 4
  Post-emergence herbicidal damage score, ZEAMX (Zea mays): 2

## CC1=C(Cl)C(O)N(c2cc(C(F)(F)C(F)(F)F)[nH]n2)C1=O (stereo not drawn) [Compound A6]
1000 g/ha
  Post-emergence herbicidal damage score, ABUTH (Abutilon theophrasti): 2
  Post-emergence herbicidal damage score, ALOMY (Alopecurus myosuroides): 1
  Post-emergence herbicidal damage score, AMARE (Amaranthus retroflexus): 3
  Post-emergence herbicidal damage score, ECHCG (Echinochloa crus-galli): 2
  Post-emergence herbicidal damage score, SETFA (Setaria faberi): 2
  Post-emergence herbicidal damage score, ZEAMX (Zea mays): 1

## CCC(C)(CC)c1cc(N2C(=O)C(C)=C(Cl)C2O)n[nH]1 (stereo not drawn) [Compound A7]
1000 g/ha
  Post-emergence herbicidal damage score, ABUTH (Abutilon theophrasti): 5
  Post-emergence herbicidal damage score, ALOMY (Alopecurus myosuroides): 3
  Post-emergence herbicidal damage score, AMARE (Amaranthus retroflexus): 5
  Post-emergence herbicidal damage score, ECHCG (Echinochloa crus-galli): 5
  Post-emergence herbicidal damage score, SETFA (Setaria faberi): 5
  Post-emergence herbicidal damage score, ZEAMX (Zea mays): 1

## CC1=C(Cl)C(O)N(c2cc(C)n(C)n2)C1=O (stereo not drawn) [Compound B1]
1000 g/ha
  Post-emergence herbicidal damage score, ABUTH (Abutilon theophrasti): 5
  Post-emergence herbicidal damage score, ALOMY (Alopecurus myosuroides): 2
  Post-emergence herbicidal damage score, AMARE (Amaranthus retroflexus): 5
  Post-emergence herbicidal damage score, ECHCG (Echinochloa crus-galli): 2
  Post-emergence herbicidal damage score, SETFA (Setaria faberi): 1
  Post-emergence herbicidal damage score, ZEAMX (Zea mays): 1

## CC1=C(Cl)C(O)N(c2cc(C(C)(C)C)n(C)n2)C1=O (stereo not drawn) [Compound B2, 1-(5-tert-butyl-1-methyl-1H-pyrazol-3-yl)-4-chloro-5-hydroxy-3-methyl-1,5-dihydro-pyrrol-2-one]
1000 g/ha
  Post-emergence herbicidal damage score, ABUTH (Abutilon theophrasti): 5
  Post-emergence herbicidal damage score, ALOMY (Alopecurus myosuroides): 5
  Post-emergence herbicidal damage score, AMARE (Amaranthus retroflexus): 5
  Post-emergence herbicidal damage score, ECHCG (Echinochloa crus-galli): 5
  Post-emergence herbicidal damage score, SETFA (Setaria faberi): 5
  Post-emergence herbicidal damage score, ZEAMX (Zea mays): 2

## CC1=C(Cl)C(O)N(c2cc(C(F)(F)F)n(C)n2)C1=O (stereo not drawn) [Compound B3]
1000 g/ha
  Post-emergence herbicidal damage score, ABUTH (Abutilon theophrasti): 5
  Post-emergence herbicidal damage score, ALOMY (Alopecurus myosuroides): 5
  Post-emergence herbicidal damage score, AMARE (Amaranthus retroflexus): 5
  Post-emergence herbicidal damage score, ECHCG (Echinochloa crus-galli): 5
  Post-emergence herbicidal damage score, SETFA (Setaria faberi): 4
  Post-emergence herbicidal damage score, ZEAMX (Zea mays): 1

## CC1=C(Cl)C(O)N(c2cc(C(F)(F)C(F)(F)F)n(C)n2)C1=O (stereo not drawn) [Compound B4]
1000 g/ha
  Post-emergence herbicidal damage score, ABUTH (Abutilon theophrasti): 5
  Post-emergence herbicidal damage score, ALOMY (Alopecurus myosuroides): 4
  Post-emergence herbicidal damage score, AMARE (Amaranthus retroflexus): 5
  Post-emergence herbicidal damage score, ECHCG (Echinochloa crus-galli): 4
  Post-emergence herbicidal damage score, SETFA (Setaria faberi): 3
  Post-emergence herbicidal damage score, ZEAMX (Zea mays): 0

## CC1=C(Cl)C(O)N(c2cc(C(C)C)n(C)n2)C1=O (stereo not drawn) [Compound B5]
250 g/ha
  Post-emergence herbicidal damage score, ABUTH (Abutilon theophrasti): 5
  Post-emergence herbicidal damage score, ALOMY (Alopecurus myosuroides): 4
  Post-emergence herbicidal damage score, AMARE (Amaranthus retroflexus): 5
  Post-emergence herbicidal damage score, ECHCG (Echinochloa crus-galli): 5
  Post-emergence herbicidal damage score, SETFA (Setaria faberi): 4
  Post-emergence herbicidal damage score, ZEAMX (Zea mays): 3
